Assay results from ChEMBL document CHEMBL1909046, “DrugMatrix in vitro pharmacology data”.

Experiments:
[1] = DRUGMATRIX: Sigma2 radioligand binding (ligand: [3H] Ifenprodil); format: cell membranes, Rattus norvegicus, Wistar, Brain, Membrane; details: Not Active = under 50% inhibition at 10 µM
[2] = molecular target: Glycine receptor (Rattus norvegicus, UniProt P22771+P24524+P07727+P20781); format: cell membranes, Wistar, Spinal cord, Membrane; note: in other assays of this panel Not Active means under 50% inhibition at 10 µM
[3] = molecular target: Protein kinase C alpha type (Homo sapiens, UniProt P17252); format: cell-based; details: sf9;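 note: inhibition of PKCalpha kinase activity measured in an enzyme assay with histone as the phosphorylation substrate; in other assays of this panel Not Active means under 50% inhibition at 10 µM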
[4] = DRUGMATRIX: ATPase, Na+/K+ enzyme inhibition (substrate: ATP); format: tissue-based, Sus scrofa, Heart; details: Not Active = under 50% inhibition at 10 µM
[5] = molecular target: T1, Nitric oxide synthase, inducible (Mus musculus, UniProt P29477); parameters: species or system Escherichia coli;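 note: inhibition of iNOS enzyme activity measured with L-arginine as substrate; in other assays of this panel Not Active means under 50% inhibition at 10 µM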
T1 sequence (P29477 whole entry): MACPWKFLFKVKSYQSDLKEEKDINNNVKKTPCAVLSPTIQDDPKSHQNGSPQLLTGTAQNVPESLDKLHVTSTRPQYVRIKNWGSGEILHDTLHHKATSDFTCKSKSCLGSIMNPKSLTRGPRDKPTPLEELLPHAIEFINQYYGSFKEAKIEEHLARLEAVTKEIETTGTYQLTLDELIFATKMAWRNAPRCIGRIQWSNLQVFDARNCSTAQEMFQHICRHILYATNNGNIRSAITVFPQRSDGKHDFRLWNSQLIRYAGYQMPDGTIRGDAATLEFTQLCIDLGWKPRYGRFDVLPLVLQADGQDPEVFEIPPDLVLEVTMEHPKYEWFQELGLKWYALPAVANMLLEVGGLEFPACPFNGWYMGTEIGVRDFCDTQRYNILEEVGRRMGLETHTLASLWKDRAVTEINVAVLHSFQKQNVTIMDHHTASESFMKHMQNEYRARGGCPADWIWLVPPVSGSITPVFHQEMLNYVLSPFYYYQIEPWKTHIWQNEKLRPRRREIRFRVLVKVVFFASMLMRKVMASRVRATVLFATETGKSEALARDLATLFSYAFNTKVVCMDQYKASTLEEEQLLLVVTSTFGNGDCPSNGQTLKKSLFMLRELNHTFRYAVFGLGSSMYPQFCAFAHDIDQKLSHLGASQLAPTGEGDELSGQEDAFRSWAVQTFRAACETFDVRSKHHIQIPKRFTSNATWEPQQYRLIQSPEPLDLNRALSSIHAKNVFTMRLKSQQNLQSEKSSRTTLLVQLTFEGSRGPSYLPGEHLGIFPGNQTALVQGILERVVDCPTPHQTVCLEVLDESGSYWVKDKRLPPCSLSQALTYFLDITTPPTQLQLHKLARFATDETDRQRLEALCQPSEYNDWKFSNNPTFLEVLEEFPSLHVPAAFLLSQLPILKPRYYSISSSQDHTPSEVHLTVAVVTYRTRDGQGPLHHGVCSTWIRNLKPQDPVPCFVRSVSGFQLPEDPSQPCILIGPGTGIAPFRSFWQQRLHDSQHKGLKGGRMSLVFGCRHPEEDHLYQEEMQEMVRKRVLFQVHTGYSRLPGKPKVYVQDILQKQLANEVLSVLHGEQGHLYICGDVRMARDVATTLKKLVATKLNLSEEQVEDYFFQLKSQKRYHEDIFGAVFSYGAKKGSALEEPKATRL

[6] = molecular target: cGMP-specific 3',5'-cyclic phosphodiesterase (Homo sapiens, UniProt O76074); assay: DRUGMATRIX: Phosphodiesterase PDE5 enzyme inhibition (substrate: [3H]cGMP + cGMP); format: tissue-based; details: platelet; Not Active = under 50% inhibition at 10 µM
[7] = molecular target: Delta-type opioid receptor (Homo sapiens, UniProt P41143); format: cell membranes, HEK293, Membrane; note: in other assays of this panel Not Active means under 50% inhibition at 10 µM
Chain of Delta-type opioid receptor (P41143 whole entry): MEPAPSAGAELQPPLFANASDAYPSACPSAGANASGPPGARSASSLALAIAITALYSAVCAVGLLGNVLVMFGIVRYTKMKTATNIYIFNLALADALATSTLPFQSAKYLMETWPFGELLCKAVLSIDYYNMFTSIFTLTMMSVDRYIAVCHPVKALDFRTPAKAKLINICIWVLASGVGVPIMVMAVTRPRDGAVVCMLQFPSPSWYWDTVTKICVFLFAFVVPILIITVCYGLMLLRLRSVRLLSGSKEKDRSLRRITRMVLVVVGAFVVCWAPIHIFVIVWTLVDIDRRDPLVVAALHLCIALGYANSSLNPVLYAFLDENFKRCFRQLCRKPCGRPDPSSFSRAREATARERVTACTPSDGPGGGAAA

SMILES	IC50 [1]	Ki [1]	IC50 [2]	IC50 [3]	IC50 [4]	Ki [4]	IC50 [5]	IC50 [6]	IC50 ([7]; hek293)	IC50 ([1]; read-out: IC50)	Ki ([1]; read-out: Ki)	IC50 ([7]; read-out: IC50)	Ki ([7]; read-out: Ki)
CC(C)(C)NC(=O)[C@@H]1C[C@@H]2CCCC[C@@H]2CN1C[C@@H](O)[C@H](Cc1ccccc1)NC(=O)[C@H](CC(N)=O)NC(=O)c1ccc2ccccc2n1	Not Active	Not Active	Not Active	Not Active	Not Active	Not Active	Not Active	Not Active	–	–	–	–	–
CC(=O)[C@@]1(O)CC[C@H]2[C@@H]3C[C@H](C)C4=CC(=O)CC[C@]4(C)[C@H]3CC[C@@]21C	Not Active	Not Active	Not Active	Not Active	Not Active	Not Active	Not Active	Not Active	Not Active	–	–	–	–
N[C@@H](Cc1ccc(N(CCCl)CCCl)cc1)C(=O)O	Not Active	Not Active	Not Active	Not Active	Not Active	Not Active	Not Active	Not Active	Not Active	–	–	–	–
CCCCc1oc2ccccc2c1C(=O)c1cc(I)c(OCCN(CC)CC)c(I)c1 [AMIODARONE]	–	–	Not Active	Not Active	–	–	Not Active	Not Active	–	–	–	–	–
OCCN(CCO)c1nc(N2CCCCC2)c2nc(N(CCO)CCO)nc(N3CCCCC3)c2n1 [DIPYRIDAMOLE]	Not Active	Not Active	Not Active	Not Active	Not Active	Not Active	Not Active	–	Not Active	–	–	–	–
Cc1oncc1C(=O)Nc1ccc(C(F)(F)F)cc1 [LEFLUNOMIDE]	Not Active	Not Active	Not Active	Not Active	Not Active	Not Active	Not Active	Not Active	Not Active	–	–	–	–
c1ccc([C@H]2CN3CCSC3=N2)cc1 [LEVAMISOLE]	–	–	Not Active	Not Active	Not Active	Not Active	Not Active	Not Active	Not Active	4.39 µM	2.7 µM	–	–
N[C@@H](Cc1ccc(O)c(O)c1)C(=O)O [LEVODOPA]	Not Active	Not Active	Not Active	Not Active	Not Active	Not Active	Not Active	Not Active	Not Active	–	–	–	–
N[C@@H](Cc1cc(I)c(Oc2ccc(O)c(I)c2)c(I)c1)C(=O)O [LIOTHYRONINE]	–	–	Not Active	Not Active	–	–	Not Active	Not Active	Not Active	–	–	–	–
O=NN(CCCl)C(=O)NC1CCCCC1 [LOMUSTINE]	Not Active	Not Active	Not Active	Not Active	Not Active	Not Active	Not Active	Not Active	Not Active	–	–	–	–
CCOC(=O)N1CCC(=C2c3ccc(Cl)cc3CCc3cccnc32)CC1 [LORATADINE]	Not Active	Not Active	Not Active	Not Active	Not Active	Not Active	Not Active	Not Active	Not Active	–	–	–	–
Cn1ccnc1S [METHIMAZOLE]	Not Active	Not Active	Not Active	Not Active	Not Active	Not Active	Not Active	Not Active	Not Active	–	–	–	–
CC[C@@H](CO)NC(=O)[C@@H]1C=C2c3cccc4[nH]cc(c34)C[C@H]2N(C)C1 [METHYLERGONOVINE]	Not Active	Not Active	Not Active	Not Active	Not Active	Not Active	Not Active	Not Active	Not Active	–	–	–	–
COc1nc(C)nc(Cl)c1NC1=NCCN1 [MOXONIDINE]	Not Active	Not Active	Not Active	Not Active	Not Active	Not Active	Not Active	Not Active	Not Active	–	–	–	–
COc1c(C)c2c(c(O)c1C/C=C(\C)CCC(=O)O)C(=O)OC2 [MYCOPHENOLIC ACID]	Not Active	Not Active	Not Active	Not Active	Not Active	Not Active	Not Active	Not Active	Not Active	–	–	–	–
O=c1ncn2nc(Sc3ccc(F)cc3F)ccc2c1-c1c(Cl)cccc1Cl [NEFLAMAPIMOD]	Not Active	Not Active	Not Active	Not Active	Not Active	Not Active	Not Active	Not Active	Not Active	–	–	–	–
CN1CCN(CCCN2c3ccccc3Sc3ccc(Cl)cc32)CC1 [PROCHLORPERAZINE]	–	–	Not Active	Not Active	–	–	Not Active	Not Active	Not Active	–	–	–	–
CO[C@H]1/C=C/O[C@@]2(C)Oc3c(C)c(O)c4c(O)c(c(/C=N/N5CCN(C)CC5)c(O)c4c3C2=O)NC(=O)/C(C)=C\C=C\[C@H](C)[C@H](O)[C@@H](C)[C@@H](O)[C@@H](C)[C@H](OC(C)=O)[C@@H]1C [RIFAMPIN]	Not Active	Not Active	Not Active	Not Active	Not Active	Not Active	Not Active	Not Active	Not Active	–	–	–	–
Nc1nc2ccc(OC(F)(F)F)cc2s1 [RILUZOLE]	Not Active	Not Active	Not Active	Not Active	Not Active	Not Active	Not Active	Not Active	Not Active	–	–	–	–
Cc1nc2n(c(=O)c1CCN1CCC(c3noc4cc(F)ccc34)CC1)CCCC2 [RISPERIDONE]	–	–	Not Active	Not Active	–	–	Not Active	Not Active	Not Active	–	–	–	–
C=CCC1(C(C)CCC)C(=O)NC(=O)NC1=O (stereo not given) [SECOBARBITAL]	Not Active	Not Active	Not Active	Not Active	Not Active	Not Active	Not Active	Not Active	Not Active	–	–	–	–
C[C@@H]1CN(c2c(F)c(N)c3c(=O)c(C(=O)O)cn(C4CC4)c3c2F)C[C@H](C)N1 [SPARFLOXACIN]	Not Active	Not Active	Not Active	Not Active	Not Active	Not Active	Not Active	Not Active	Not Active	–	–	–	–
Cc1noc(NS(=O)(=O)c2ccc(N)cc2)c1C [SULFISOXAZOLE]	Not Active	Not Active	Not Active	Not Active	Not Active	Not Active	Not Active	Not Active	Not Active	–	–	–	–
CSc1ccc(/C=C2/C(C)=C(CC(=O)O)c3cc(F)ccc32)cc1 [SULINDAC SULFIDE]	Not Active	Not Active	Not Active	Not Active	Not Active	Not Active	Not Active	Not Active	Not Active	–	–	–	–
Nc1c2c(nc3ccccc13)CCCC2 [TACRINE]	Not Active	Not Active	Not Active	Not Active	Not Active	Not Active	Not Active	Not Active	Not Active	–	–	–	–
CC/C(=C(\c1ccccc1)c1ccc(OCCN(C)C)cc1)c1ccccc1 [TAMOXIFEN]	–	–	Not Active	Not Active	–	–	Not Active	Not Active	–	–	–	13.3 µM	4.7 µM
CCCOc1ccccc1-c1nc2nn[nH]c2c(=O)[nH]1 [ZAPRINAST]	Not Active	Not Active	Not Active	Not Active	Not Active	Not Active	Not Active	–	Not Active	–	–	–	–
